Our source for the IC50 and EC50 values is patent publication US20260131007A1, “Mannose 6-Phosphate Receptor Binding Compounds for the Degradation of Extracellular Proteins” (Avilar Therapeutics, Inc., priority 2023, published 2026).

Bridge positions count the residues as written; N and C are the ends. Square brackets hold non-standard residues; d marks the D form. Some results are limits rather than exact numbers.

The chains are these.
B1: Compound 6 (peptide)
peptide: cyclo(ELVWCT[dP]PDCAWHLG)
modifications: disulfide 5-10; not fully specified (residue 8); also: one triazole-linked (2-(6-(but-3-yn-1-yloxy)-3,4,5-trihydroxytetrahydro-2H-pyran-2-yl)ethyl)phosphonic acid group on the PEG8 linker
B2: Compound 1 (peptide)
peptide: cyclo(ELVWCT[dP]PDCAWHLG)
modifications: disulfide 5-10; not fully specified (residue 8); also: trivalent linker structure not given here
B3: Compound 10 (peptide)
peptide: cyclo(ELVWCT[dP]PDCAWHLG)
modifications: disulfide 5-10; not fully specified (residue 8); also: trivalent linker structure not given here
B4: Compound 9 (peptide)
peptide: cyclo(ELVWCT[dP]PDCAWHLG)
modifications: disulfide 5-10; not fully specified (residue 8); also: branched PEG linker structure not given here
B5: Compound 11 (peptide)
peptide: cyclo(ELVWCT[dP]PDCAWHLG)
modifications: disulfide 5-10; not fully specified (residue 8); also: one triazole-linked A77 group on the PEG8 linker

The target of the first assay is T1, Insulin-like growth factor 2 receptor (IGF-1IR, cation-independent mannose-6-phosphate receptor, CI-MPR; hIGF-IIR) (Homo sapiens, UniProt P11717).
T1 construct: purchased R&D Systems 6418-GR
The assay is described as follows: HTRF-based ternary complex inhibition assay for relative affinity of IGF-IIR ligands. As to conditions: competition with MTAC probe for His-tagged hIGF-IIR; biotinylated IgG1; apparent binding affinity; read-out: TCF INH (HTRF) IC50. The method, then: The apparent binding affinity of Insulin-like growth factor 2 receptor (IGF-1IR, also called the cation- independent mannose-6-phosphate receptor (CI-MPR)) ligands was determined indirectly by competing with a probe molecule for binding to IGF-1IR. The probe is a Mannose 6-Phosphate Ligand (“Ligand”) and binds to hIGF-IIR and IgG1 to form a hIGF-IIR: Ligand: IgG1 ternary complex. The ternary complex was detected by an HTRF readout. The ternary complex is disrupted in the presence of IGF-1IR ligand, resulting in decreased HTRF signal. IGF-1IR ligands of 3-fold dilution series were prepared from 10 mM DMSO stock on a 384-well LDV microplate using Echo Acoustic Liquid Handler (Beckman Coulter Life Sciences) followed by transfer of 600 nL of the solutions to an OptiPlate 384-well microplate (PerkinElmer, 6007290). Manose-6-phosphate (M6P; J&K, 530168) and glucose-6-phosphate (G6P; Sigma, V900924) were prepared from 100 mM stock in the same manner and were used as positive and negative controls, respectively. The wells used as 0% and 100% inhibition controls were prepared by adding 600 nL DMSO. 20 nL of 50 μM MTAC probe was transferred to all wells except the wells used as 100% Inhibition control. 9.4 μL working solution containing 65.1 nM of Biotinylated-IgG1 (Viva 20211108) and 65.1 nM of His-tagged hIGF-IIR (R&D Systems, 6418-GR) in assay buffer 50 mM Tris, pH 7.5, 150 mM NaCl, 50 mM CaCl2, 0.01% Tween-20 was transferred to all wells. The plate was incubated at room temperature for 60 min with gentle shaking to allow molecular interaction to reach equilibration. Following this, 10 μL of HTRF detection solution containing 15 nM Streptavidin-d2 (PerkinElmer, 610SADLA) and 0.7 nM MAb Anti 6HIS—Tb cryptate (PerkinElmer, 61HISTLA) in PPI Terbium detection buffer (PerkinElmer, 61DB10RDF) was added. The assay plate was incubated at room temperature with gentle shaking for 60 min to allow HTRF signal to develop. The plate was gently spun on a centrifuge then placed on a EnVision plate reader (Perkin Elmer, EnVision 2104) to read fluorescence ratio of 665 nm/615 nm. Percent inhibitions were calculated with this equation: % I=100* [1−(X−100% I/(0% I−100% I)] where X is the […] in the presence of IGF-1IR ligand. The apparent binding affinity (presented as IC50) was calculated by fitting the % inhibition data with a non-linear 4-parameter inhibition equation using GraphPad Prism (GraphPad Software, LLC; version 9.4.1).
As to `O=P(O)(O)CC[C@H]1OC(CCc2ccccc2)[C@@H](O)[C@@H](O)[C@@H]1O` (stereo partly drawn) [Compound A13, (2-((2R,3S,4R,5S)-3,4,5-trihydroxy-6-phenethyltetrahydro-2H-pyran-2-yl)ethyl)phosphonic acid], the half-maximal inhibitory concentration (IC50) was < 10000 nM.

As to `COc1ccc(OC2O[C@H](CCP(=O)(O)Cc3ccccc3C#N)[C@@H](O)[C@H](O)[C@@H]2O)cc1` (stereo partly drawn) [Compound A49, (2-cyanophenyl)methyl-[2-[(2R,3S,4S,5S)-3,4,5-trihydroxy-6-(4-methoxyphenoxy)tetrahydropyran-2-yl]ethyl]phosphinic acid], the 50% inhibitory concentration (IC50) is < 10000 nM. On the same count and under the same terms, next, `COCP(=O)(O)CC[C@H]1O[C@H](Oc2ccccc2)[C@@H](O)[C@@H](O)[C@@H]1O` [Compound A45, methoxymethyl-[2-[(2R,3S,4S,5S,6R)-3,4,5-trihydroxy-6-phenoxy-tetrahydropyran-2-yl]ethyl]phosphinic acid]: 10000 to 100000 nM; `O=P(O)(CC[C@H]1O[C@H](Oc2ccccc2)[C@@H](O)[C@@H](O)[C@@H]1O)Cc1c(F)cccc1F` [Compound A42, (2,6-difluorobenzyl) (2-((2R,3S,4S,5S,6R)-3,4,5-trihydroxy-6-phenoxytetrahydro-2H-pyran-2-yl)ethyl)phosphinic acid]: < 10000 nM. Same read-out and setting: for `CC(=O)N1C[C@@H](O)[C@@H](O)[C@H](O)[C@H]1CCP(=O)(O)O` [Compound A61, (2-((2R,3R,4R,5R)-1-acetyl-3,4,5-trihydroxypiperidin-2-yl)ethyl)phosphonic acid] the value was 10000 to 100000 nM.

A further assay addresses T2, hIGF-IIR and IgG1 (ternary complex) (Homo sapiens, UniProt P01857+P11717).
T2 construct: purchased R&D Systems 6418-GR
In words: HTRF-based ternary complex formation assay for hIGF-IIR targeting Extracellular Protein Degraders. The format is binding.
Settings: not given
From the text: The ternary complex formation assay is designed to identify and determine the potency of Extracellular Protein Degrader molecules which can induce the formation of ternary complex between the Extracellular Protein Degrader hIGF-IIR. Titrating Extracellular Protein Degrader to fixed amount of hIGF-IIR results in a bell-shaped curve (except molecules whose binary complex affinity between Extracellular Protein Degrader and hIGF-IIR). The peak mean represents Extracellular Protein Degrader concentration at which maximum ternary complex is formed. Too much or too little Extracellular Protein Degrader leads to decreased ternary complex formation due to formation of binary complex (Hook effect). Dose response of Extracellular Protein Degrader compounds (16-point 3-fold dilution series, 100X) were prepared by Echo Acoustic Liquid Handler (Beckman Coulter Life Sciences) using 384-well LDV microplate. Then 200 nL of the solutions were transferred to an OptiPlate 384-well microplate (PerkinElmer, 6007290). To the assay plate, 10 μL working solution containing 60 nM of Biotinylated-IgG1 (Viva 20211108) and 60 nM of His-tagged hIGF-IIR (R&D Systems, 6418-GR) in assay buffer 50 mM Tris, pH 7.5, 150 mM NaCl, 50 mM CaCl2, 0.01% Tween-20 were added. The plate was incubated for 60 min at room temperature with gentle shaking to allow molecular interaction to reach equilibration. Following this, 10 μL of HTRF detection solution containing 15 nM Streptavidin-d2 (PerkinElmer, 610SADLA) and 0.7 nM MAb Anti 6HIS—Tb cryptate (PerkinElmer, 61HISTLA) in PPI Terbium detection buffer (PerkinElmer, 61DB10RDF) were added. The assay plate was incubated at room temperature with gentle shaking for 60 min to allow HTRF signal to develop. The plate was gently spun on a centrifuge then placed on an EnVision plate reader (Perkin Elmer, EnVision 2104) to read fluorescence ratio of 665 nm/615 nm. Data were analyzed by fitting with Bell-shaped non-linear regression model using GraphPad Prism (GraphPad Software, LLC; version 9.4.1). Mean fluorescence intensity is graphed versus compound concentration and the EC50 for TCF is calculated from the inflection point of the curve (GraphPad).
With `CC(C)C[C@@H]1NC(=O)[C@H](Cc2cnc[nH]2)NC(=O)[C@H](Cc2c[nH]c3ccccc23)NC(=O)[C@H](C)NC(=O)[C@@H]2CSSC[C@H](NC(=O)[C@H](Cc3c[nH]c4ccccc34)CC(=O)[C@H](C(C)C)NC(=O)[C@H](CC(C)C)NC(=O)[C@H](CCC(=O)O)NC(=O)CNC1=O)C(=O)N[C@@H]([C@@H](C)O)C(=O)N1CCC[C@@H]1C(=O)N1C[C@@H](NC(=O)CCOCCOCCOCCN(CCOCCOCCOCCn3cc(CCO[C@H]4O[C@H](CCP(=O)(O)O)[C@@H](O)[C@H](O)[C@@H]4O)nn3)CCOCCOCCOCCn3cc(CCO[C@H]4O[C@H](CCP(=O)(O)O)[C@@H](O)[C@H](O)[C@@H]4O)nn3)C[C@H]1C(=O)N[C@@H](CC(=O)O)C(=O)N2` [Compound 9], the EC50 is < 50 nM. The same measure, in the same setting: next, `COc1ccc(OC2O[C@H](CCP(=O)(O)Cc3cn(CCOCCNC(=O)CCOCC(COCCC(=O)NCCOCCn4cc(CP(=O)(O)CC[C@@H]5OC(Oc6ccc(OC)cc6)[C@H](O)[C@H](O)[C@H]5O)nn4)(COCCC(=O)NCCOCCn4cc(CP(=O)(O)CC[C@H]5OC(Oc6ccc(OC)cc6)[C@@H](O)[C@@H](O)[C@@H]5O)nn4)NC(=O)COCCOCCOCC(=O)N[C@H]4C[C@H]5C(=O)N[C@@H](CC(=O)O)C(=O)N[C@H]6CSSC[C@H](NC(=O)[C@H](Cc7c[nH]c8ccccc78)NC(=O)[C@H](C(C)C)NC(=O)[C@H](CC(C)C)NC(=O)[C@H](CCC(=O)O)NC(=O)CNC(=O)[C@H](CC(C)C)NC(=O)[C@H](Cc7c[nH]cn7)NC(=O)[C@H](Cc7c[nH]c8ccccc78)NC(=O)[C@H](C)NC6=O)C(=O)N[C@@H]([C@@H](C)O)C(=O)N6CCC[C@@H]6C(=O)N5C4)nn3)[C@@H](O)[C@H](O)[C@@H]2O)cc1` (some centres unmarked) [Compound 10]: < 50 nM.

Still in this assay, the particulars now being: biotinylated IgG1 and His-tagged hIGF-IIR, 60 nM each; read-out: TCF (HTRF) EC50.
Take `COc1ccc(OC2O[C@H](CCP(=O)(O)Cc3cn(CCOCCOCCOCCOCCOCCOCCOCCOCCC(=O)N[C@H]4C[C@H]5C(=O)N[C@@H](CC(=O)O)C(=O)N[C@H]6CSSC[C@H](NC(=O)[C@H](Cc7c[nH]c8ccccc78)NC(=O)[C@@H](C(C)C)NC(=O)[C@@H](CC(C)C)NC(=O)[C@H](CCC(=O)O)NC(=O)CNC(=O)[C@@H](CC(C)C)NC(=O)[C@H](Cc7cnc[nH]7)NC(=O)[C@H](Cc7c[nH]c8ccccc78)NC(=O)[C@H](C)NC6=O)C(=O)N[C@H]([C@@H](C)O)C(=O)N6CCC[C@@H]6C(=O)N5C4)nn3)[C@@H](O)[C@H](O)[C@@H]2O)cc1` (some centres unmarked) [Compound 11]: the EC50 was < 50 nM. Still for that read-out and setting: for `CC(C)C[C@@H]1NC(=O)[C@H](Cc2c[nH]cn2)NC(=O)[C@H](Cc2c[nH]c3ccccc23)NC(=O)[C@H](C)NC(=O)[C@@H]2CSSC[C@H](NC(=O)[C@H](Cc3c[nH]c4ccccc34)NC(=O)[C@H](C(C)C)NC(=O)[C@H](CC(C)C)NC(=O)[C@H](CCC(=O)O)NC(=O)CNC1=O)C(=O)N[C@@H]([C@@H](C)O)C(=O)N1CCC[C@@H]1C(=O)N1C[C@@H](NC(=O)CCOCCOCCOCCOCCOCCOCCOCCOCCn3cc(CCO[C@H]4O[C@H](CCP(=O)(O)O)[C@@H](O)[C@H](O)[C@@H]4O)nn3)C[C@H]1C(=O)N[C@@H](CC(=O)O)C(=O)N2` [Compound 6] the value was < 50 nM.

A further assay concerns the target Biotinylated-IgG1 (Viva 20211108). In words: HTRF ternary complex formation: compound titrated into 60 nM biotinylated IgG1 + 60 nM His-tagged hIGF-IIR (R&D 6418-GR); grade read by the legend '<50 nM = ***'.
Settings: not given
For the molecule B1, the half-maximal effective concentration (EC50) was < 50 nM. Still for that read-out and setting: for B2 the value was < 50 nM; for B3, < 50 nM; for B4, < 50 nM. Still for that read-out and setting: next, B5: < 50 nM.
